Measurements as given in the supplement of paper PMC10733146.

How the values were obtained:
Test in all cases: viability relative to DMSO control (fraction); higher = less drug effect (more viable cells)
Settings in all cases: 48 h
[1] = tested on: primary ALL patient cells (S088)
Procedure, shortened: (§1)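 The cells were primary mononuclear tumour cells, either fresh or cryopreserved, isolated by Ficoll from blood or bone marrow or derived from processed lymph node. Each well of a 384-well plate received 4 × 10^4 cells onto compounds pre-plated at five concentrations, with one well per concentration. The medium was RPMI-1640 with penicillin/streptomycin, L-glutamine and human serum, and plates stood at 37 °C and 5% CO2 for 48 h. Viability is reported as CellTiter-Glo luminescence relative to the median of 16 inner DMSO wells.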

[2] = tested on: primary AML patient cells (S006)
Procedure, shortened: as §1

[3] = tested on: primary AML patient cells (S009)
Procedure, shortened: as §1

[4] = tested on: primary AML patient cells (S011)
Procedure, shortened: as §1

[5] = tested on: primary AML patient cells (S021)
Procedure, shortened: as §1

[6] = tested on: primary AML patient cells (S055)
Procedure, shortened: as §1

[7] = tested on: primary AML patient cells (S060)
Procedure, shortened: as §1

[8] = tested on: primary AML patient cells (S081)
Procedure, shortened: as §1

[9] = tested on: primary B-PLL patient cells (S016)
Procedure, shortened: as §1

[10] = tested on: primary DLBCL patient cells (S049)
Procedure, shortened: as §1

[11] = tested on: primary DLBCL patient cells (S076)
Procedure, shortened: as §1

[12] = tested on: primary DLBCL patient cells (S082)
Procedure, shortened: as §1

[13] = tested on: primary FL patient cells (S087)
Procedure, shortened: as §1

[14] = tested on: primary MCL patient cells (S041)
Procedure, shortened: as §1

[15] = tested on: primary MCL patient cells (S063)
Procedure, shortened: as §1

[16] = tested on: primary T-NHL patient cells (S058)
Procedure, shortened: as §1

[17] = tested on: primary T-PLL patient cells (S008)
Procedure, shortened: as §1

SMILES: CC(=O)Nc1cccc(-n2c(=O)n(C3CC3)c(=O)c3c(Nc4ccc(I)cc4F)n(C)c(=O)c(C)c32)c1 [Trametinib]
- viability ([1]; 0.0008 µM): 0.62
- viability ([1]; 0.004 µM): 0.548
- viability ([1]; 0.02 µM): 0.545
- viability ([1]; 0.1 µM): 0.503
- viability ([1]; 0.5 µM): 0.504
- viability ([2]; 0.0008 µM): 0.888
- viability ([2]; 0.004 µM): 0.939
- viability ([2]; 0.02 µM): 0.787
- viability ([2]; 0.1 µM): 0.86
- viability ([2]; 0.5 µM): 0.798
- viability ([3]; 0.0008 µM): 1.09
- viability ([3]; 0.004 µM): 1.17
- viability ([3]; 0.02 µM): 1.24
- viability ([3]; 0.1 µM): 1.24
- viability ([3]; 0.5 µM): 1.04
- viability ([4]; 0.0008 µM): 0.855
- viability ([4]; 0.004 µM): 0.925
- viability ([4]; 0.02 µM): 0.953
- viability ([4]; 0.1 µM): 0.931
- viability ([4]; 0.5 µM): 0.879
- viability ([5]; 0.0008 µM): 0.864
- viability ([5]; 0.004 µM): 0.697
- viability ([5]; 0.02 µM): 0.672
- viability ([5]; 0.1 µM): 0.598
- viability ([5]; 0.5 µM): 0.605
- viability ([6]; 0.0008 µM): 0.797
- viability ([6]; 0.004 µM): 0.582
- viability ([6]; 0.02 µM): 0.585
- viability ([6]; 0.1 µM): 0.559
- viability ([6]; 0.5 µM): 0.558
- viability ([7]; 0.0008 µM): 1.04
- viability ([7]; 0.004 µM): 0.797
- viability ([7]; 0.02 µM): 0.681
- viability ([7]; 0.1 µM): 0.657
- viability ([7]; 0.5 µM): 0.642
- viability ([8]; 0.0008 µM): 0.999
- viability ([8]; 0.004 µM): 0.935
- viability ([8]; 0.02 µM): 0.742
- viability ([8]; 0.1 µM): 0.651
- viability ([8]; 0.5 µM): 0.567
- viability ([9]; 0.0008 µM): 0.939
- viability ([9]; 0.004 µM): 1.05
- viability ([9]; 0.02 µM): 0.986
- viability ([9]; 0.1 µM): 0.933
- viability ([9]; 0.5 µM): 0.885
- viability ([10]; 0.0008 µM): 0.769
- viability ([10]; 0.004 µM): 0.834
- viability ([10]; 0.02 µM): 0.705
- viability ([10]; 0.1 µM): 0.729
- viability ([10]; 0.5 µM): 0.658
- viability ([11]; 0.0008 µM): 0.752
- viability ([11]; 0.004 µM): 0.789
- viability ([11]; 0.02 µM): 0.63
- viability ([11]; 0.1 µM): 0.706
- viability ([11]; 0.5 µM): 0.648
- viability ([12]; 0.0008 µM): 0.835
- viability ([12]; 0.004 µM): 0.828
- viability ([12]; 0.02 µM): 0.727
- viability ([12]; 0.1 µM): 0.702
- viability ([12]; 0.5 µM): 0.651
- viability ([13]; 0.0008 µM): 0.951
- viability ([13]; 0.004 µM): 0.9
- viability ([13]; 0.02 µM): 0.92
- viability ([13]; 0.1 µM): 0.903
- viability ([13]; 0.5 µM): 0.941
- viability ([14]; 0.0008 µM): 0.989
- viability ([14]; 0.004 µM): 1.04
- viability ([14]; 0.02 µM): 1.03
- viability ([14]; 0.1 µM): 1.01
- viability ([14]; 0.5 µM): 1.02
- viability ([15]; 0.0008 µM): 0.991
- viability ([15]; 0.004 µM): 0.973
- viability ([15]; 0.02 µM): 0.987
- viability ([15]; 0.1 µM): 0.949
- viability ([15]; 0.5 µM): 0.936
- viability ([16]; 0.0008 µM): 0.918
- viability ([16]; 0.004 µM): 0.98
- viability ([16]; 0.02 µM): 0.969
- viability ([16]; 0.1 µM): 0.967
- viability ([16]; 0.5 µM): 0.934
- viability ([17]; 0.0008 µM): 0.965
- viability ([17]; 0.004 µM): 1.05
- viability ([17]; 0.02 µM): 0.955
- viability ([17]; 0.1 µM): 1.07
- viability ([17]; 0.5 µM): 0.905

SMILES: Nc1ccn([C@@H]2O[C@H](CO)[C@@H](O)[C@@H]2O)c(=O)n1 [Cytarabine]
- viability ([1]; 0.032 µM): 1.08
- viability ([1]; 0.16 µM): 0.969
- viability ([1]; 0.8 µM): 0.676
- viability ([1]; 4 µM): 0.304
- viability ([1]; 20 µM): 0.138
- viability ([2]; 0.032 µM): 1.09
- viability ([2]; 0.16 µM): 0.996
- viability ([2]; 0.8 µM): 0.773
- viability ([2]; 4 µM): 0.147
- viability ([2]; 20 µM): 0.0817
- viability ([3]; 0.032 µM): 1.04
- viability ([3]; 0.16 µM): 0.96
- viability ([3]; 0.8 µM): 0.82
- viability ([3]; 4 µM): 0.521
- viability ([3]; 20 µM): 0.383
- viability ([4]; 0.032 µM): 1.52
- viability ([4]; 0.16 µM): 1.04
- viability ([4]; 0.8 µM): 0.942
- viability ([4]; 4 µM): 0.681
- viability ([4]; 20 µM): 0.224
- viability ([5]; 0.032 µM): 1.03
- viability ([5]; 0.16 µM): 1.1
- viability ([5]; 0.8 µM): 0.882
- viability ([5]; 4 µM): 0.849
- viability ([5]; 20 µM): 0.419
- viability ([6]; 0.032 µM): 1.02
- viability ([6]; 0.16 µM): 1.08
- viability ([6]; 0.8 µM): 0.818
- viability ([6]; 4 µM): 0.346
- viability ([6]; 20 µM): 0.189
- viability ([7]; 0.032 µM): 1.09
- viability ([7]; 0.16 µM): 1.02
- viability ([7]; 0.8 µM): 1.01
- viability ([7]; 4 µM): 0.505
- viability ([7]; 20 µM): 0.132
- viability ([8]; 0.032 µM): 1.1
- viability ([8]; 0.16 µM): 1.07
- viability ([8]; 0.8 µM): 1.14
- viability ([8]; 4 µM): 0.884
- viability ([8]; 20 µM): 0.4
- viability ([9]; 0.032 µM): 1.11
- viability ([9]; 0.16 µM): 0.733
- viability ([9]; 0.8 µM): 0.145
- viability ([9]; 4 µM): 0.0425
- viability ([9]; 20 µM): 0.0373
- viability ([10]; 0.032 µM): 1.01
- viability ([10]; 0.16 µM): 0.886
- viability ([10]; 0.8 µM): 0.673
- viability ([10]; 4 µM): 0.264
- viability ([10]; 20 µM): 0.143
- viability ([11]; 0.032 µM): 1.01
- viability ([11]; 0.16 µM): 0.793
- viability ([11]; 0.8 µM): 0.711
- viability ([11]; 4 µM): 0.319
- viability ([11]; 20 µM): 0.118
- viability ([12]; 0.032 µM): 1.08
- viability ([12]; 0.16 µM): 0.974
- viability ([12]; 0.8 µM): 0.702
- viability ([12]; 4 µM): 0.522
- viability ([12]; 20 µM): 0.484
- viability ([13]; 0.032 µM): 1.03
- viability ([13]; 0.16 µM): 1.02
- viability ([13]; 0.8 µM): 0.959
- viability ([13]; 4 µM): 0.747
- viability ([13]; 20 µM): 0.628
- viability ([14]; 0.032 µM): 1.08
- viability ([14]; 0.16 µM): 1
- viability ([14]; 0.8 µM): 0.732
- viability ([14]; 4 µM): 0.21
- viability ([14]; 20 µM): 0.115
- viability ([15]; 0.032 µM): 1.11
- viability ([15]; 0.16 µM): 1.08
- viability ([15]; 0.8 µM): 0.957
- viability ([15]; 4 µM): 0.489
- viability ([15]; 20 µM): 0.238
- viability ([16]; 0.032 µM): 0.81
- viability ([16]; 0.16 µM): 0.397
- viability ([16]; 0.8 µM): 0.237
- viability ([16]; 4 µM): 0.166
- viability ([16]; 20 µM): 0.108
- viability ([17]; 0.032 µM): 1.05
- viability ([17]; 0.16 µM): 0.968
- viability ([17]; 0.8 µM): 0.876
- viability ([17]; 4 µM): 0.434
- viability ([17]; 20 µM): 0.209
